The results in this text go back to ChEMBL document CHEMBL4325823 (Medchemcomm, 2018).

Test [1] in a line: Inhibition of bacterial NDM1. On the set-up: species or system Bacteria.
Test [2] can be described thus: Inhibition of bacterial Class A beta-lactamase. On the set-up: species or system Bacteria.
The nature of test [3]: Inhibition of bacterial beta lactamase class C. On the set-up: species or system Bacteria.
Test [4] deals with Enterobacteriaceae. As to the kind of experiment: Inhibition of ESBL in Enterobacteriaceae assessed as potentiation of cefepime-induced antibacterial activity by measuring cefepime MIC by broth microdilution method. (Broth dilution looks for growth in wells or tubes with falling amounts of substance.)
Test [5] can be described thus: Inhibition of bacterial VIM2 expressed in Escherichia coli BL21(DE3) using nitrocefin as substrate measured after 5 to 10 mins. Details: species or system Bacteria.
Test [6] is described as follows: Binding affinity to Zn2+ by isothermal calorimetric method. In general terms: In ITC the heat of successive injections is recorded.
The nature of test [7]: Inhibition of bacterial NDM1 expressed in Escherichia coli BL21(DE3) using nitrocefin as substrate measured after 5 to 10 mins. On the set-up: species or system Bacteria.
Another test relates to Bacteroides fragilis. Nature of the test: Inhibition of beta lactamase in Bacteroides fragilis assessed as potentiation of ceftolozane-induced antibacterial activity by measuring ceftolozane MIC90.
Test [8] concerns Pseudomonas aeruginosa. Nature of the test: Inhibition of beta lactamase in Pseudomonas aeruginosa assessed as potentiation of ceftazidime-induced antibacterial activity by measuring ceftazidime MIC by broth microdilution method.
For test [9], the system named is Pseudomonas aeruginosa. Nature of the test: Inhibition of beta lactamase in Pseudomonas aeruginosa assessed as potentiation of ceftazidime-induced antibacterial activity by measuring fold reduction in ceftazidime MIC90 at 4 ug/ml relative to ceftazidime alone.
Another test relates to Prevotella sp. Nature of the test: Inhibition of beta lactamase in Prevotella sp. clinical isolate assessed as potentiation of ceftolozane-induced antibacterial activity by measuring ceftolozane MIC90.
Test [10] relates to Pseudomonas aeruginosa. As to the kind of experiment: Inhibition of beta lactamase in Pseudomonas aeruginosa assessed as potentiation of piperacillin-induced antibacterial activity by measuring piperacillin MIC by broth microdilution method.
The test system of a further test is Fusobacterium sp. As to the kind of experiment: Inhibition of beta lactamase in Fusobacterium sp. clinical isolate assessed as potentiation of ceftolozane-induced antibacterial activity by measuring ceftolozane MIC90.
Another test relates to Escherichia coli. As to the kind of experiment: Inhibition of ESBL in Escherichia coli clinical isolate assessed as potentiation of ceftolozane-induced antibacterial activity by measuring ceftolozane MIC by broth microdilution method.
Test [11] has as its system Enterobacteriaceae. Nature of the test: Inhibition of beta lactamase in Enterobacteriaceae clinical isolate assessed as potentiation of ceftolozane-induced antibacterial activity by measuring ceftolozane MIC by broth microdilution method.
Test [12] concerns Pseudomonas aeruginosa. As to the kind of experiment: Inhibition of beta lactamase in Pseudomonas aeruginosa assessed as potentiation of colistin-induced antibacterial activity by measuring colistin MIC90.
Test [13] deals with Pseudomonas aeruginosa. As to the kind of experiment: Inhibition of beta lactamase in Pseudomonas aeruginosa assessed as potentiation of meropenem-induced antibacterial activity by measuring meropenem MIC90.
The subject of test [14] is Pseudomonas aeruginosa. As to the kind of experiment: Inhibition of beta lactamase in Pseudomonas aeruginosa assessed as potentiation of ceftolozane-induced antibacterial activity by measuring ceftolozane MIC90.
Test [15] relates to Pseudomonas aeruginosa. Nature of the test: Inhibition of beta lactamase in Pseudomonas aeruginosa assessed as potentiation of ceftolozane-induced antibacterial activity by measuring ceftolozane MIC by broth microdilution method.

In the case of `O=C(Cc1cn2ccsc2n1)NNC(=S)Nc1ccc(OCc2ccccc2)cc1`, it took 35 nM to reach half-maximal inhibition in test [1] (IC50).
Same read-out and setting: in the case of `CC(C)c1cccc2c(-c3ccc(S(=O)(=O)N(C)C)cc3)c(C(=O)O)[nH]c12` it was 0.35 nM.
On to `O=C(NOC1CCNC1)[C@@H]1CC2(CC2)[C@@H]2CN1C(=O)N2OS(=O)(=O)O` (some centres not stated), for which the half-maximal inhibitory concentration (IC50) in [2] and in test [3] was < 19 nM each time.
Consider `CC(C)c1cccc2c(-c3ccc(Cn4cccn4)cc3)c(C(=O)O)[nH]c12`, for which the midpoint of inhibition in test [1], the IC50, lay at 0.5 nM. That is a sub-nanomolar value.
For the molecule `Cn1cc[n+](C[C@@]2(C)[C@H](C(=O)[O-])N3C(=O)C[C@H]3S2(=O)=O)n1`, in the test with Enterobacteriaceae [4], the MIC50 was 0.125 µg/mL and the MIC90 was 0.5 µg/mL.
Take `N[C@@H](CN[C@@H](CN[C@@H](CC(=O)O)C(=O)O)C(=O)O)C(=O)O`: the values for the half-maximal inhibitory concentration (IC50) in [5] and in test [7] were 9600 nM and 4000 nM, respectively. The affinity in test [6], expressed as Kd, was 200 nM.
Regarding `C[C@]1(Cn2ccnn2)[C@H](C(=O)O)N2C(=O)C[C@H]2S1(=O)=O`, the MIC90 was 4 µg/mL in the test on Bacteroides fragilis; 32 µg/mL with Pseudomonas aeruginosa [8]; < 0.125 µg/mL in the test on Prevotella sp.; > 64 µg/mL in the test on Pseudomonas aeruginosa [10]; < 0.125 µg/mL with Fusobacterium sp.; 4 µg/mL with Escherichia coli. Also, the MIC90 in the test with Enterobacteriaceae [11] turned out to be 1 µg/mL; in the test on Pseudomonas aeruginosa [12] it was 2 µg/mL; with Pseudomonas aeruginosa [13], 8 µg/mL; in the test on Pseudomonas aeruginosa [14], 1 µg/mL; in the test on Pseudomonas aeruginosa [15], 2 µg/mL. In addition, the fold change (FC) in the test with Pseudomonas aeruginosa [9] was 2.
